Our source for the remaining activity and IC50 values is patent US20230122344A1, “ANTAGONISTS OF THE MUSCARINIC ACETYLCHOLINE RECEPTOR M4” (Vanderbilt University, priority 2019, published 2023).

For orientation: IC50 means the concentration at which inhibition is half-maximal.

This experiment concerns the target T1, Human M4 (Homo sapiens, UniProt P08173).
T1 construct: expressed in transfected cells; host or cells: CHO-K1 (ATCC), co-transfected with chimeric G protein Gqi5
T1 sequence (P08173 1-479): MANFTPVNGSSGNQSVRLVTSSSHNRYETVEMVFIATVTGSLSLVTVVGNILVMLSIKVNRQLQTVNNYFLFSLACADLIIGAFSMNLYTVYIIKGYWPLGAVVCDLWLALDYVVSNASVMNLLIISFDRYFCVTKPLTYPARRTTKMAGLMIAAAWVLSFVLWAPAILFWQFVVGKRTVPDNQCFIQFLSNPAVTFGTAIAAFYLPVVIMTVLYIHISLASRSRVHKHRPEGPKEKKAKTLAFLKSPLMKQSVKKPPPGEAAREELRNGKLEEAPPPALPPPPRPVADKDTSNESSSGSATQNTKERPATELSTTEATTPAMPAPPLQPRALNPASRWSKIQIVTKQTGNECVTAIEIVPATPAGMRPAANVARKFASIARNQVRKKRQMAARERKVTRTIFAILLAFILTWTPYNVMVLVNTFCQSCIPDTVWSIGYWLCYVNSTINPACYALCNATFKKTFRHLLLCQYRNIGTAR
The experiment in a line: mAChR M4 cell-based functional assay (calcium flux, antagonism of EC80 acetylcholine response). Particulars: M4/Gqi5/CHO-K1 cells; for remaining activity at 30 µM: CHO-K1, % ACh maximum at 30 μM, read-out: Human M4 Emin; for IC50: decrease of response elicited by EC80 acetylcholine. The essentials: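 CHO-K1 cells stably expressing human or rat M4 with Gqi5, Fluo-4 loaded; calcium measured by fluorescence ratio on FDSS. Compound added, then EC20 acetylcholine at 143 s and EC80 at 268 s; IC50 from decrease of EC80 response, four-parameter logistic fit.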
For orientation: Calcium assays in cells follow changes in intracellular calcium, usually with a dye or a luminescent sensor.

As to `[2H]C([2H])(C1CCOCC1)N1C[C@H]2C[C@H](Nc3cc(C4(C(F)(F)F)CC4)c(-c4cc(F)cc(F)c4F)nn3)C[C@H]2C1` [compound 39, (3aR,5s,6aS)-2-((tetrahydro-2H-pyran-4-yl)methyl-d2)-N-(5-(1-(trifluoromethyl)cyclopropyl)-6-(2,3,5-trifluorophenyl)pyridazin-3-yl)octahydrocyclopenta[c]pyrrol-5-amine], the remaining activity at 30 µM stood at 3% and the IC50 is 17.9 nM.

Turning to `[2H]C([2H])(C1CCOCC1)N1C[C@H]2C[C@H](Nc3cc(C(F)F)c(-c4cc(F)cc(F)c4F)nn3)C[C@H]2C1` [compound 40, (3aR,5s,6aS)-N-(5-(difluoromethyl)-6-(2,3,5-trifluorophenyl)pyridazin-3-yl)-2-((tetrahydro-2H-pyran-4-yl)methyl-d2)octahydrocyclopenta[c]pyrrol-5-amine], the remaining activity at 30 µM was determined as 3% and the IC50 amounted to 1.37 nM.

Consider `Fc1cc(F)c(F)c(-c2nnc(N[C@H]3C[C@@H]4CN(CC5CCOCC5)C[C@@H]4C3)cc2C(F)F)c1` [compound 41, (3aR,5s,6aS)-N-(5-(difluoromethyl)-6-(2,3,5-trifluorophenyl)pyridazin-3-yl)-2-((tetrahydro-2H-pyran-4-yl)methyl)octahydrocyclopenta[c]pyrrol-5-amine], for which the remaining activity at 30 µM came out at 3% and the IC50 worked out at 0.33 nM.

As to `COc1ccc(F)cc1-c1nnc(N[C@H]2C[C@@H]3CN(CC4CCOCC4)C[C@@H]3C2)cc1C(F)F` [compound 42, (3aR,5s,6aS)-N-(5-(difluoromethyl)-6-(5-fluoro-2-methoxyphenyl)pyridazin-3-yl)-2-((tetrahydro-2H-pyran-4-yl)methyl)octahydrocyclopenta[c]pyrrol-5-amine], the remaining activity at 30 µM was 2% and the IC50 came out at 0.67 nM.

Turning to `Cc1ccc(F)cc1-c1nnc(N[C@H]2C[C@@H]3CN(CC4CCOCC4)C[C@@H]3C2)cc1C(F)F` [compound 43, (3aR,5s,6aS)-N-(5-(difluoromethyl)-6-(5-fluoro-2-methylphenyl)pyridazin-3-yl)-2-((tetrahydro-2H-pyran-4-yl)methyl)octahydrocyclopenta[c]pyrrol-5-amine], the remaining activity at 30 µM was determined as 2% and the concentration for half-maximal inhibition (IC50) stood at 0.57 nM.

As for `Fc1ccc(Cl)c(-c2nnc(N[C@H]3C[C@@H]4CN(CC5CCOCC5)C[C@@H]4C3)cc2C(F)F)c1` [compound 44, (3aR,5s,6aS)-N-(6-(2-chloro-5-fluorophenyl)-5-(difluoromethyl)pyridazin-3-yl)-2-((tetrahydro-2H-pyran-4-yl)methyl)octahydrocyclopenta[c]pyrrol-5-amine], the remaining activity at 30 µM worked out at 2% and the half-maximal inhibitory concentration (IC50) was 0.65 nM.

As to `[2H]C([2H])(C1CCOCC1)N1C[C@H]2C[C@H](Nc3nnc(-c4cc(F)cc(F)c4F)cc3C(C)(F)F)C[C@H]2C1` [compound 45, (3aR,5s,6aS)-N-(4-(1,1-difluoroethyl)-6-(2,3,5-trifluorophenyl)pyridazin-3-yl)-2-((tetrahydro-2H-pyran-4-yl)methyl-d2)octahydrocyclopenta[c]pyrrol-5-amine], the remaining activity at 30 µM worked out at 3% and the IC50 came to 54.4 nM.

Consider `CC(c1ccccn1)N1C[C@H]2C[C@H](Nc3cc(C(F)F)c(-c4cc(F)cc(F)c4F)nn3)C[C@H]2C1` (stereo partly drawn) [compound 50, (3aR,5s,6aS)-N-(5-(difluoromethyl)-6-(2,3,5-trifluorophenyl)pyridazin-3-yl)-2-(1-(pyridin-2-yl)ethyl)octahydrocyclopenta[c]pyrrol-5-amine], for which the remaining activity at 30 µM is 2% and the IC50 was found to be 34.8 nM.
